Data on four compounds can be found in BindingDB's records for doi:10.1016/s0960-894x(98)00562-9 (The Procter & Gamble, 1999).

Structures are written as SMILES.

The term Ki denotes a measure of affinity in units of concentration, obtained from inhibition or displacement. Lower therefore signals tighter binding.

This experiment concerns the target Plasmin (Homo sapiens). The experiment is described as follows: Inhibitory activity of compound against Plasmin (HP).
On to `CC(C)(C)[C@@H](NC(=O)OC12CC3CC(CC(C3)C1)C2)C(=O)N[C@@H](Cc1ccccc1)C(=O)NC(Cc1ccc(NC(=N)N)cc1)C(=O)C(F)(F)F` (stereo partly drawn) [((R)-2,2-Dimethyl-1-{(S)-2-phenyl-1-[3,3,3-trifluoro-1-(4-guanidino-benzyl)-2-oxo-propylcarbamoyl]-ethylcarbamoyl}-propyl)-carbamic acid adamantan-1-yl ester], for which the Ki worked out at 120 nM.
As for `N=C(N)Nc1ccc(CC(NC(=O)[C@H](Cc2ccccc2)NC(=O)[C@@H](CCc2ccccc2)NC(=O)OC23CC4CC(CC(C4)C2)C3)C(=O)C(F)(F)F)cc1` (stereo partly drawn) [((R)-3-Phenyl-1-{(S)-2-phenyl-1-[3,3,3-trifluoro-1-(4-guanidino-benzyl)-2-oxo-propylcarbamoyl]-ethylcarbamoyl}-propyl)-carbamic acid adamantan-1-yl ester], the figure is 40 nM; as for `CC(C)(C)[C@@H](NC(=O)N1CCOCC1)C(=O)NCC(=O)NC(Cc1ccc(NC(=N)N)cc1)C(=O)C(F)(F)F` (stereo partly drawn) [Morpholine-4-carboxylic acid [(R)-2,2-dimethyl-1-({[3,3,3-trifluoro-1-(4-guanidino-benzyl)-2-oxo-propylcarbamoyl]-methyl}-carbamoyl)-propyl]-amide], 110000 nM.
`CC(C)(C)OC(=O)N[C@H](Cc1ccccc1)C(=O)N[C@H](C(=O)NC(Cc1ccc(NC(=N)N)cc1)C(=O)C(F)(F)F)c1ccc2ccccc2c1` (stereo partly drawn) [[(R)-1-({(S)-Naphthalen-2-yl-[3,3,3-trifluoro-1-(4-guanidino-benzyl)-2-oxo-propylcarbamoyl]-methyl}-carbamoyl)-2-phenyl-ethyl]-carbamic acid tert-butyl ester] returned a Ki of 60 nM.
